Test: gradient 5% acetonitrile 3 min, to 50% in 2 min, to 85% in 15 min, held 3 min, 100 µL/min
Conditions: column: Zorbax Extend-C18 2.1 x 50 mm; eluents: water / acetonitrile, 0.1% formic acid
In short: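 Values are retention times taken from adduct peaks that software picked and an analyst inspected. The pure standards were run as mixtures of ~100 molecules on HPLC linked to a quadrupole time-of-flight mass spectrometer, in positive and negative ionization mode. A Zorbax Extend-C18 column (2.1 × 50 mm, 1.8 μm) was used at 100 μL/min with water and acetonitrile, each including 0.1% formic acid.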

In order of rising RP-LC retention time:
1. CCCn1ncc(N2CCC(C(=O)N3CCN(C(C)C)CC3)CC2)cc1=O  566 s
2. O=[N+]([O-])c1ccc(S(=O)(=O)N2CCN(c3ccc(NCC4CCCO4)nn3)CC2)cc1 (stereo not given)  568 s
3. CC(=O)N1CCN(c2ccnc3c2c(=O)n(CC(=O)Nc2cc(C)on2)c(=O)n3C)CC1  579 s
4. COc1ccc(C2=NC3(CCN(C)CC3)NC(c3cccc(OC)c3O)C2)cc1 (stereo not given)  583 s
5. Cc1ccsc1CN1CCn2c(nnc2[C@@H]2C[C@@H](O)CN2Cc2cccnc2)C1  591 s
6. CCOc1ccc(S(=O)(=O)Nc2ccc3nc(N4CCN(C)CC4)cc(C(=O)O)c3c2)cc1  596 s
7. CCOCCCNC(=O)Nc1ccc2nc(N3CCOCC3)cc(C)c2c1  596 s
8. Cc1noc(C)c1CN1CCC(NC(=O)Cc2ccc(F)cc2)C1 (stereo not given)  597 s
9. CC1CCCCN1Cc1nnc(-c2ccccc2)o1 (stereo not given)  597 s
10. CCc1nc2cccnc2n1CCN1CCN(C(=O)Nc2cc(C)ccc2C)CC1  598 s
11. COCCN1CCC2(CC1)CN(Cc1ccc(OC)c(C)c1)Cc1ccccc1O2  598 s
12. Cn1c(=O)n(C)c2cc(CNc3ccc(N4CCOCC4)cc3)ccc21  600 s
13. O=C(CCNc1cnc2cnccn12)NCc1ccc(F)c(Cl)c1  601 s
14. CCN1CCN(c2ncc(N3CCC(C(=O)NCc4cccs4)CC3)cn2)CC1  603 s
15. CNC(=O)[C@@H]1C[C@H](Oc2ccccc2)CN1C(=O)COc1ccccc1  603 s
16. CCc1nc2ncc(-c3ccnc(N4CCN(Cc5ccccc5)CC4)n3)c(C)n2n1  607 s
17. COc1ccc(S(=O)(=O)N2CCC3(CC2)CC(C)(O)CCO3)cc1OC (stereo not given)  612 s
18. COC[C@@H]1CN(C(=O)Cn2nc(C(F)(F)F)cc2C)C[C@H]1C(N)=O  622 s
19. COc1ccc(CNC(=O)Cc2nnc(-c3ccccn3)o2)cc1OC  622 s
20. Cn1ncc(N2CCCC(CC(=O)N3CCC4(CC3)OCCO4)C2)cc1=O (stereo not given)  625 s
21. O=S(=O)(c1cccc2nsnc12)N1CCCn2nc(-c3cccnc3)cc2C1  627 s
22. CCOc1ccccc1N1CCN(c2cc(C(=O)O)c3cc(NC(=O)CC)ccc3n2)CC1  634 s
23. COCc1nc2ccccc2n1CC(=O)NC1CCCCC1  642 s
24. COCCCNC(=O)C1Cn2cccc2C(=O)N1CC(C)C (stereo not given)  646 s
25. CCc1ccc2c(c1)-c1ccccc1S(=O)(=O)N2CC(=O)N1CCN(C)CC1  662 s
26. CC(C)NC(=O)N1CCOc2ccc(CCC(=O)O)cc2C1  671 s
27. COC(=O)CNC(=O)N1CCCC1c1ccc(OC)cc1 (stereo not given)  678 s
28. CCCCOc1ccc(-c2cc3c4nnc(CCC(=O)N5CCN(CC)CC5)n4ccn3n2)cc1  680 s
29. Cn1c(C2CCN(C(=O)Nc3cccc(Cl)c3F)CC2)cc(=O)n2nccc12  685 s
30. O=C(NCc1ccc(Cl)cc1)c1nc(-c2ccncc2)cs1  687 s
31. O=C(Cn1c(=O)c2cccn2c2ccccc21)NC1CC1  688 s
32. N#Cc1ccccc1NC(=O)NCC1CN(c2ccc3c(c2)OCO3)C(=O)O1 (stereo not given)  690 s
33. COCCN1C(=O)[C@H]2CN(Cc3ccc(OC(F)(F)F)cc3)C[C@H]2C1=O  694 s
34. COc1ccc(CNC(=O)c2cn3cccc(C)c3n2)cc1  695 s
35. COCCn1cc(CC(=O)NC2CCCCC2)c2cccnc21  700 s
36. CCNC(=O)Nc1ccc(OCC(=O)NC(C)c2ccc(OC)cc2)nc1 (stereo not given)  701 s
37. N#Cc1ccc(Cl)cc1NC(=O)C1CCN(c2ccc(-c3cccs3)nn2)CC1  702 s
38. COC(=O)c1c(C)[nH]c(C(=O)N2CCCC(C(=O)N3CCN(c4ccc(OC)cc4)CC3)C2)c1C (stereo not given)  707 s
39. O=C(O)CCc1conc1-c1ccc(F)cc1  708 s
40. CCOC(=O)c1[nH]c(C)c(CCC(=O)N2CCN(C(=O)c3ccco3)CC2)c1C  709 s
41. COc1ccc(OC)c(CNC(=O)C2CCCN(c3cnc4nccnc4c3)C2)c1 (stereo not given)  710 s
42. O=C(NCC(O)c1ccc(C(F)(F)F)cc1)c1ccco1 (stereo not given)  711 s
43. CCOc1ccc(C(C)NC(=O)C2CCN(c3cnc4nccnc4c3)CC2)cc1 (stereo not given)  712 s
44. CN1C(=O)C2(CCN(C(=O)c3ccc(C#N)cc3)C2)c2ccccc21 (stereo not given)  725 s
45. CCC(CO)Nc1nc2ccc(Cl)cc2c2ccccc12 (stereo not given)  732 s
46. O=C(NCCC1CCN(C(=O)Nc2cc(F)cc(F)c2)CC1)C1CC1  735 s
47. CC(C)c1nncn1C1CCN(S(=O)(=O)Cc2cccc(Cl)c2)CC1  736 s
48. COc1ccc(CCN2C(=O)C(NC(C)=O)(C(F)(F)F)C3=C2CC(C)(C)CC3=O)cc1OC (stereo not given)  760 s
49. COc1ccc(C(=O)Nc2cc(-c3cccnc3)no2)c(C)c1  760 s
50. Cc1noc(C2(NC(=O)c3ccccn3)CCCCC2)n1  766 s
51. O=C(Cn1nc2c(N3CCOCC3)nccn2c1=O)Nc1ccc(Br)cc1F  779 s
52. COc1cc(C)c(C(C)C)cc1S(=O)(=O)Nc1cccc(C)n1  781 s
53. Cc1nnc(N2CCCC(C(=O)NC(C)c3ccccc3)C2)c2nn(-c3ccc(Cl)cc3)c(C)c12 (stereo not given)  795 s
54. O=C(CN1CCC(c2nc(-c3ccccc3)no2)CC1)Nc1ccccc1Br  795 s
55. CCOc1ccc(NC(=O)Cc2nnc3ccc(C(=O)Nc4ccccc4)cn23)cc1  798 s
56. O=S(=O)(NCc1cccnc1-c1ccc(F)cc1)c1cccc(Br)c1  800 s
57. CN1C(=O)c2cc(C(=O)NCc3ccc(Cl)cc3)nn2CC1(C)C(=O)NCc1ccc(F)cc1 (stereo not given)  805 s
58. CCCC(=O)OCCCNc1nc(-c2ccc(Cl)cc2)nc2ccccc12  813 s
59. CCCn1nc(CNC(=O)c2cccc3[nH]ccc23)c2ccccc21  813 s
60. CCCOc1ccc(-c2csc(NC(=O)CN3C(=O)CCC3=O)n2)cc1  816 s
61. CCOC(=O)c1nc(NCc2ccc(C)cc2)c2ccccc2n1  823 s
62. CCNC(=O)c1cc2cc(Br)ccc2[nH]1  828 s
63. CN(C)S(=O)(=O)c1ccc(-c2nnc(C(=O)NCc3ccc(F)cc3)o2)cc1  844 s
64. CCS(=O)(=O)c1nc2ccc(NS(=O)(=O)c3cc(F)ccc3F)cc2s1  854 s
65. CCc1cccc(NC(=O)C2CCN(S(=O)(=O)c3ccc4c(c3)sc(=O)n4C)CC2)c1  862 s
66. O=C(NCCOc1cccc(C(F)(F)F)c1)C1CCCC1  880 s
67. O=C(CSc1nnc2c3cc(-c4ccc(F)cc4)nn3ccn12)Nc1ccccc1F  881 s
68. COc1ccc(CC2C(=O)Nc3ccc(Br)cc32)cc1 (stereo not given)  882 s
69. CCCc1cc(N2CCN(c3ccccn3)CC2)n2ncc(-c3ccccc3)c2n1  886 s
70. O=C(Cn1nc(C(=O)N2CCCC2)c2ccccc21)Nc1cccc(Br)c1  903 s
71. Cc1ccc(-n2c(C)c(C)c3c(=O)n(CC(=O)N(C)Cc4ccco4)cnc32)cc1  907 s
72. COc1cccc(-n2c(N3CCCC(C(=O)Nc4ccc(F)cc4)C3)nc3ccsc3c2=O)c1 (stereo not given)  932 s
73. CCn1ncn2cc(S(=O)(=O)Nc3ccc(C)cc3C)cc2c1=O  937 s
74. CCn1c(=O)sc2cc(S(=O)(=O)N3CCC(C(=O)N(C)C4CCCCC4)CC3)ccc21  958 s
75. CCc1ccccc1N1C(=O)CN(S(=O)(=O)c2ccccc2)CC1(C)C(=O)NC1CCCC1 (stereo not given)  960 s
76. CCn1c(=O)sc2cc(S(=O)(=O)N3CCC(C(=O)Nc4cccc(C)c4)CC3)ccc21  962 s
77. COc1ccc(-c2noc(C3CC(=O)N(c4ccccc4)C3)n2)cc1OC (stereo not given)  964 s
78. CC1CCN(S(=O)(=O)c2cc(-c3nnc(C(C)C)o3)co2)CC1  964 s
79. Cc1ccc(NC(=O)Cn2cccc2-c2nnc(C3CCC3)o2)cc1C  985 s
80. C(=C\c1cccs1)/c1nc(-c2cccc(-c3ccn[nH]3)c2)no1  1010 s
81. Cc1cccc(N2CCN(C(=O)CCC3CCCN(C(=O)Nc4ccccc4)C3)CC2)c1C (stereo not given)  1080 s
82. Cc1ccc2c(c1)N(S(C)(=O)=O)CCC(C(=O)Nc1ccc(C(F)(F)F)cc1)O2 (stereo not given)  1090 s
83. Cc1c(-c2noc(-c3cccc(F)c3)n2)nnn1-c1ccccc1  1090 s
84. O=C(Cc1ccc(Cl)cc1)NCc1nc(-c2cccc(-c3csc(C4CC4)n3)c2)no1  1120 s
85. Cc1ccc(-c2cc(C(=O)NCCC3=CCCCC3)c(C)[nH]2)cc1C  1120 s
86. Cc1nc2c(sc3nc(-c4ccccc4)ccc32)c(=O)n1CC(=O)Nc1ccc(F)c(Cl)c1  1140 s
87. CCOC(=O)c1cnc2c(-c3ccc(Cl)cc3)c(COC)nn2c1N  1150 s
88. Cc1csc(-c2cc(S(=O)(=O)N3CCN(c4ccccc4)CC3)c(C)s2)n1  1160 s
89. O=c1c2cc(-c3ccc(F)cc3)nn2cnn1Cc1nc(-c2ccc(Cl)c(F)c2)no1  1260 s
90. CC(C)(C)c1csc(-c2csc(S(=O)(=O)N3CCCCCC3)c2)n1  1340 s
